# System: leucémie murine L 1210
# Experiment: Cytotoxic activity on murine leukaemia L 1210 cells in suspension culture, cell count after 48 h
# Format: cell-based
# Conditions: Mus musculus, L1210; concentration reducing growth by 50 % versus controls; 48 heures d'incubation; Coulter Counter; 37°C, 5 % CO₂
# Method: L'activité cytotoxique a été evaluée sur le modèle de la leucémie murine L 1210 cultivée en suspension en milieu iquide à 37°C sous une atmosphère de 5 % CO₂.
# Les cellules en phase exponentielle de croissance sont incubées en présence de concentrations croissantes des produits. Après 48 heures d'incubation, les cellules sont comptées (Coulter Counter) et l'effet cytotoxique est évalué par la détermination par régression linéaire de la concentration du produit ayant réduit de 50 % la croissance par rapport aux témoins (IC₅₀).
row,SMILES,IC50 [µM]
1,"COCc1c(O)ccc2cc3ccc4ncccc4c3nc12 [Exemple 2, Hydroxy-10 méthoxyméthyl-11 benzo [b] phénanthroline-1,7]",6.5
2,"CN1COCc2c1ccc1cc3ccc4ncccc4c3nc21 [Exemple 4, Dihydro-3,4 méthyl-4 1H-benzoxazino [3,1] [5,6-b] phénanthroline-1,7]",1.3
3,"CNc1ccc2cc3ccc4ncccc4c3nc2c1COC [Exemple 6, Méthoxyméthyl-11 méthylamino-10 benzo [b] phénanthroline-1,7]",1.1
4,"CNc1ccc2cc3ccc4ncccc4c3nc2c1CO [Exemple 7, Hydroxyméthyl-11 méthylamino-10 benzo [b] phénanthroline-1,7]",0.17
